# Test results from the OligoGym collection.
# HELM strings list units from the 5' end as sugar, base in round brackets, then linkage (d deoxyribose, r ribose, m 2'-O-methyl, p phosphodiester). Strings are as the collection lists them; they lack the last nucleoside at the 3' end of the tested compound. [moe] = 2'-O-(2-methoxyethyl) (MOE); [sp] = phosphorothioate linkage; [m5C] = 5-methylcytosine
# Target: UBE3A-ATS
# Experiment: mouse, dose not given
# Details: ASO
row,Substance,3 h FOB score [score 0-7]
1,RNA1{[moe](A)[sp].[moe](A)[sp].[moe](G)[sp].[moe](G)[sp].[moe](G)[sp].d(T)[sp].d(A)[sp].d(A)[sp].d(T)[sp].d(A)[sp].d([m5C])[sp].d(G)[sp].d(G)[sp].d(A)[sp].d([m5C])[sp].[moe]([m5C])[sp].[moe](T)[sp].[moe]([m5C])[sp].[moe](A)}$$$$ (last 3' nucleoside missing),6.5
2,RNA1{[moe](A)[sp].[moe](A)p.[moe](A)p.[moe](A)p.[moe](T)p.d(A)[sp].d([m5C])[sp].d([m5C])[sp].d(A)[sp].d([m5C])[sp].d(A)[sp].d(A)[sp].d(A)[sp].d(G)[sp].d(A)[sp].[moe](T)p.[moe](A)p.[moe](G)[sp].[moe](G)}$$$$ (last 3' nucleoside missing),2.5
3,RNA1{[moe](A)[sp].[moe](A)p.[moe](A)p.[moe](A)p.[moe](T)p.d([m5C])[sp].d([m5C])[sp].d(A)[sp].d(T)[sp].d(T)[sp].d(T)[sp].d(G)[sp].d(T)[sp].d([m5C])[sp].d([m5C])[sp].[moe](A)p.[moe](G)p.[moe](T)[sp].[moe]([m5C])}$$$$ (last 3' nucleoside missing),2.3
4,RNA1{[moe](A)[sp].[moe](A)p.[moe](A)p.[moe](A)p.[moe]([m5C])p.d(G)[sp].d([m5C])[sp].d(A)[sp].d(A)[sp].d(T)[sp].d(G)[sp].d(T)[sp].d(A)[sp].d(T)[sp].d([m5C])[sp].[moe](A)p.[moe](G)p.[moe](G)[sp].[moe]([m5C])}$$$$ (last 3' nucleoside missing),0.7
5,RNA1{[moe](A)[sp].[moe](A)p.[moe](A)p.[moe](T)p.[moe]([m5C])p.d([m5C])[sp].d(A)[sp].d(T)[sp].d(T)[sp].d(T)[sp].d(G)[sp].d(T)[sp].d([m5C])[sp].d([m5C])[sp].d(A)[sp].[moe](G)p.[moe](T)p.[moe]([m5C])[sp].[moe](T)}$$$$ (last 3' nucleoside missing),4.2
6,RNA1{[moe](A)[sp].[moe](A)p.[moe](A)p.[moe]([m5C])p.[moe](G)p.[moe]([m5C])p.d(A)[sp].d(A)[sp].d(T)[sp].d(G)[sp].d(T)[sp].d(A)[sp].d(T)[sp].d([m5C])[sp].d(A)[sp].d(G)[sp].[moe](G)p.[moe]([m5C])[sp].[moe](A)}$$$$ (last 3' nucleoside missing),3
7,RNA1{[moe](A)[sp].[moe](A)p.[moe](A)p.[moe]([m5C])p.d(G)[sp].d([m5C])[sp].d(A)[sp].d(A)[sp].d(T)[sp].d(G)[sp].d(T)[sp].d(A)[sp].d(T)[sp].d([m5C])[sp].[moe](A)p.[moe](G)p.[moe](G)p.[moe]([m5C])[sp].[moe](A)}$$$$ (last 3' nucleoside missing),2
8,RNA1{[moe](A)[sp].[moe](A)p.[moe](G)p.[moe](T)p.[moe](A)p.d(T)[sp].d(A)[sp].d(G)[sp].d(A)[sp].d(T)[sp].d(G)[sp].d([m5C])[sp].d([m5C])[sp].d(T)[sp].d([m5C])[sp].[moe](T)p.[moe]([m5C])p.[moe]([m5C])[sp].[moe](T)}$$$$ (last 3' nucleoside missing),4
9,RNA1{[moe](A)[sp].[moe](A)p.[moe](G)p.[moe](T)p.[moe](G)p.d(G)[sp].d(A)[sp].d(T)[sp].d([m5C])[sp].d(T)[sp].d([m5C])[sp].d(T)[sp].d(T)[sp].d(G)[sp].d(G)[sp].[moe](G)p.[moe]([m5C])p.[moe](A)[sp].[moe](G)}$$$$ (last 3' nucleoside missing),4.8
10,RNA1{[moe](A)[sp].[moe](A)p.[moe](G)p.[moe](T)p.[moe]([m5C])p.d(A)[sp].d(T)[sp].d(T)[sp].d([m5C])[sp].d([m5C])[sp].d([m5C])[sp].d([m5C])[sp].d(A)[sp].d([m5C])[sp].d([m5C])[sp].[moe]([m5C])p.[moe](T)p.[moe](G)[sp].[moe](G)}$$$$ (last 3' nucleoside missing),1.8
11,RNA1{[moe](A)[sp].[moe](A)p.[moe]([m5C])p.[moe](A)p.[moe](A)p.d([m5C])[sp].d(G)[sp].d(G)[sp].d(T)[sp].d(T)[sp].d(G)[sp].d([m5C])[sp].d(A)[sp].d(G)[sp].d(G)[sp].[moe](G)p.[moe](A)p.[moe]([m5C])[sp].[moe](A)}$$$$ (last 3' nucleoside missing),6.8
12,RNA1{[moe](A)[sp].[moe](A)p.[moe]([m5C])p.[moe](G)p.[moe]([m5C])p.[moe](A)p.d(A)[sp].d(T)[sp].d(G)[sp].d(T)[sp].d(A)[sp].d(T)[sp].d([m5C])[sp].d(A)[sp].d(G)[sp].d(G)[sp].[moe]([m5C])p.[moe](A)[sp].[moe](A)}$$$$ (last 3' nucleoside missing),4.7
13,RNA1{[moe](A)[sp].[moe](A)p.[moe]([m5C])p.[moe](G)p.[moe]([m5C])p.d(A)[sp].d(A)[sp].d(T)[sp].d(G)[sp].d(T)[sp].d(A)[sp].d(T)[sp].d([m5C])[sp].d(A)[sp].d(G)[sp].[moe](G)p.[moe]([m5C])p.[moe](A)[sp].[moe](A)}$$$$ (last 3' nucleoside missing),1
14,RNA1{[moe](A)[sp].[moe](A)p.[moe]([m5C])p.[moe](G)p.d([m5C])[sp].d(A)[sp].d(A)[sp].d(T)[sp].d(G)[sp].d(T)[sp].d(A)[sp].d(T)[sp].d([m5C])[sp].d(A)[sp].[moe](G)p.[moe](G)p.[moe]([m5C])p.[moe](A)[sp].[moe](A)}$$$$ (last 3' nucleoside missing),2
15,RNA1{[moe](A)[sp].[moe](A)p.[moe]([m5C])p.[moe](T)p.[moe](G)p.d([m5C])[sp].d(T)[sp].d(T)[sp].d([m5C])[sp].d(A)[sp].d([m5C])[sp].d([m5C])[sp].d(A)[sp].d(T)[sp].d(T)[sp].[moe](T)p.[moe](T)p.[moe](G)[sp].[moe](A)}$$$$ (last 3' nucleoside missing),0
16,RNA1{[moe](A)[sp].[moe](A)p.[moe]([m5C])p.[moe](T)p.[moe](T)p.d([m5C])[sp].d(A)[sp].d(T)[sp].d([m5C])[sp].d(A)[sp].d(A)[sp].d(T)[sp].d(A)[sp].d(T)[sp].d(T)[sp].[moe](T)p.[moe]([m5C])p.[moe]([m5C])[sp].[moe]([m5C])}$$$$ (last 3' nucleoside missing),1
17,RNA1{[moe](A)[sp].[moe](G)p.[moe](A)p.[moe](G)p.[moe](A)p.d([m5C])[sp].d([m5C])[sp].d(T)[sp].d([m5C])[sp].d(A)[sp].d(A)[sp].d(G)[sp].d(A)[sp].d([m5C])[sp].d([m5C])[sp].[moe](T)p.[moe](A)p.[moe](T)[sp].[moe](A)}$$$$ (last 3' nucleoside missing),3.8
18,RNA1{[moe](A)[sp].[moe](G)p.[moe](A)p.[moe](G)p.[moe](G)p.d(A)[sp].d(T)[sp].d(T)[sp].d(T)[sp].d(A)[sp].d(G)[sp].d(A)[sp].d(G)[sp].d(T)[sp].d(T)[sp].[moe](A)p.[moe](A)p.[moe](A)[sp].[moe](A)}$$$$ (last 3' nucleoside missing),2.8
19,RNA1{[moe](A)[sp].[moe](G)p.[moe](A)p.[moe](G)p.[moe](G)p.d([m5C])[sp].d([m5C])[sp].d([m5C])[sp].d(T)[sp].d([m5C])[sp].d(T)[sp].d(T)[sp].d(G)[sp].d(T)[sp].d(T)[sp].[moe](T)p.[moe]([m5C])p.[moe](A)[sp].[moe](A)}$$$$ (last 3' nucleoside missing),1.8
